Results on one substance are retold here after patent US10196421B2, “Nucleophile-reactive sulfonated compounds for the (radio)labelling of (bio)molecules; precursors and conjugates thereof” (Advanced Accelerator Applications SA, priority 2012, dated 2019).

The series is described as follows: solubility of Cy 5.5 before and after conjugation with the sulfonated prosthetic compound. Type of series: physicochemical. The note with it: unconjugated precursor. From the text: This fact confirms that the present invention enables to increase the hydrophilic character of the (bio)molecules conjugated therewith.

For Cy 5.5, the solubility in water entry was “water insoluble”.
